# From patent publication USRE37556E1, “Superoxide radical inhibitor” (Otsuka Pharmaceutical Co., Ltd., priority 1990, dated 2002)
# Where a name gives a salt, the structure may show the parent alone.
# System: human neutrophilic leukocytes
# Assay: Inhibition of superoxide radical (O2-) generation in FMLP-stimulated human neutrophilic leukocytes (ferricytochrome C method)
# Type: cell-based
# Settings: Homo sapiens, Leukocyte, Table 16; comparative test present compounds vs prior art compounds; NE = not effective
# Description: (1) Activity for inhibiting the generation of superoxide radical (O2^−) in human neutrophilic leukocytes
# That is, a whole blood obtained from a healthy adult and treated by anticoagulation method was subjected to a dextranhypotonic treatment to obtain leukocyte cells. The leukocyte cells were then subjected to a density gradient ultracentrifugation by Ficoll-Paque to obtain a neutrophilic leukocyte fraction.
# O2^− generation was examined by the ferricytochrome C method in accordance with the method of B. N. Cronstein et al. [Journal of Experimental Medicine, vol. […] Each test compound was dissolved in dimethyl sulfoxide (DMSO); the solution was added to neutrophilic leukocytes before the addition of FMLP; then, the neutrophilic leukocytes were pre-incubated at 37° C.
row,Structure (SMILES),IC50 [nM]
1,"CCOc1ccc(-c2nc(-c3ccc(O)c(C(=O)O)c3)cs2)cc1OC [compound 88, 4-(3-Carboxy-4-hydroxyphenyl)-2-(3-methoxy-4-ethoxyphenyl)thiazole]",100
2,"CCOc1ccc(-c2nc(-c3cc(C(=O)O)ccc3O)cs2)cc1OCC [compound 91, 4-(3-Carboxy-6-hydroxyphenyl)-2-(3,4-diethoxyphenyl)thiazole]",23

# Second part, the molecule after the results:
row,IC50 [nM],Structure (SMILES)
1,4.8,"CCOc1ccc(-c2nc(-c3cccc(C(=O)O)c3)cs2)cc1OCC [compound 87, 4-(3-Carboxyphenyl)-2-(3,4-diethoxyphenyl)thiazole]"
2,20,"CCOc1cc(-c2nc(-c3ccc(O)c(C(=O)O)c3)cs2)ccc1OC [compound 92, 4-(3-Carboxy-4-hydroxyphenyl)-2-(3-ethoxy-4-methoxyphenyl)thiazole]"

# Same assay, conditions: Homo sapiens, Leukocyte, pH 7.4, Table 15; O2- generation, 3x10^-7 M FMLP, cytochalasin B, 37° C., pH 7.4
row,Structure (SMILES),IC50 [nM]
1,"COc1ccc(-c2nc(-c3ccc4[nH]c(=O)c(=O)[nH]c4c3)cs2)cc1OC [compound 57, 2-(3,4-Dimethoxyphenyl)-4-(2,3-dioxo-1,2,3,4-tetrahydro-quinoxalin-6-yl)thiazole]",300
2,"CCOc1ccc(-c2nc(-c3ccc4c(c3)CCC(=O)N4)cs2)cc1OCC [compound 59, 2-(3,4-Diethoxyphenyl)-4-(3,4-dihydrocarbostyril-6-yl)thiazole]",80
3,"COc1ccc(-c2nc(-c3ccccn3)cs2)cc1OC [compound 60, 2-(3,4-Dimethoxyphenyl)-4-(2-pyridyl)thiazole hydrochloride]",50
4,"CCOc1ccc(-c2nc(-c3ccc(O)c(N)c3)cs2)cc1OCC [compound 66, 4-(4-Hydroxy-3-aminophenyl)-2-(3,4-diethoxyphenyl)thiazole dihydrochloride]",60
5,"COc1ccc(-c2nc(-c3c(O)cc(O)cc3O)cs2)cc1OC [compound 70, 4-(2,4,6-Trihydroxyphenyl)-2-(3,4-dimethoxyphenyl) thiazole]",200
6,"CCOc1ccc(-c2nc(-c3ccc(N)cc3)cs2)cc1OCC [compound 72, 4-(4-Aminophenyl)-2-(3,4-diethoxyphenyl)thiazole hydrochloride]",200
7,"CCN1CCN(c2cc(-c3csc(-c4ccc(O)c(O)c4)n3)ccc2OC)CC1 [compound 74, 4-[4-Methoxy-3-(4-ethyl-1-piperazinyl)phenyl]-2-(3,4-dihydroxyphenyl)thiazole trihydrochloride]",300
8,"CCOc1ccc(-c2nc(-c3ccc(Cl)cc3)cs2)cc1OCC [compound 75, 4-(4-Chlorophenyl)-2-(3,4-diethoxyphenyl)thiazole]",600
9,"CCOc1ccc(-c2nc(-c3cc(OC(C)=O)cc(OC(C)=O)c3)cs2)cc1OCC [compound 79, 4-(3,5-Diacetyloxyphenyl)-2-(3,4-diethoxyphenyl) thiazole]",1.3
10,"CCOc1ccc(-c2nc(-c3ccc(OCC(=O)OC)c(C(=O)OC)c3)cs2)cc1OCC [compound 81, 4-(4-Methoxycarbonylmethoxy-3-methoxycarbonylphenyl)-2-(3,4-diethoxyphenyl)thiazole]",26
11,"C=C(C)Cc1cc(-c2csc(-c3ccc(OCC)c(OCC)c3)n2)cc(C(=O)O)c1O [compound 84, 4-{3-Carboxy-4-hydroxy-5-(2-methyl-2-propenyl)-phenyl}-2-(3,4-diethoxyphenyl)thiazole]",20
12,"CCOc1ccc(-c2nc(-c3ccc(O)c(C(=O)O)c3)cs2)cc1OC [compound 88, 4-(3-Carboxy-4-hydroxyphenyl)-2-(3-methoxy-4-ethoxyphenyl)thiazole]",100
13,"CCOc1ccc(-c2nc(-c3cc(N)c(O)c(C(=O)OC)c3)cs2)cc1OCC [compound 89, 4-(3-Amino-4-hydroxy-5-methoxycarbonylphenyl)-2-(3,4-diethoxyphenyl)thiazole]",7
14,"CCOc1ccc(-c2nc(-c3cc(C(=O)O)ccc3O)cs2)cc1OCC [compound 91, 4-(3-Carboxy-6-hydroxyphenyl)-2-(3,4-diethoxyphenyl)thiazole]",23
15,"CCOc1ccc(C2(c3ccc(OCC)c(OCC)c3)NC(c3ccc(OC(C)=O)c(C(=O)O)c3)=CS2)cc1OCC [compound 97, 4-(3-Carboxy-4-acetyloxyphenyl)-2-(3,4-diethoxyphenyl)-2-(3,4-diethoxyphenyl)thiazole]",100
16,"CCOc1ccc(-c2nc(-c3ccc(O)c(CC)c3)cs2)cc1OCC [compound 98, 4-(3-Ethyl-4-hydroxyphenyl)-2-(3,4-Diethoxyphenyl)thiazole]",83
17,"CCOc1ccc(-c2nc(-c3cc(C(=O)O)c(O)cc3O)cs2)cc1OCC [compound 100, 4-(3-Carboxy-4,6-dihydroxyphenyl)-2-(3,4-diethoxyphenyl)thiazole]",48

# Results, then the molecule that gave them:
row,IC50 [nM],Structure (SMILES)
1,70,"COc1ccc(-c2nc(-c3ccc4[nH]c(=O)oc4c3)cs2)cc1OC [compound 55, 2-(3,4-Dimethoxyphenyl)-4-(2-oxobenzoxazol-6-yl)thiazole]"
2,1000,"COc1ccc(C(=O)c2nc(-c3ccc4c(c3)CCC(=O)N4)cs2)cc1OC [compound 58, 2-(3,4-Dimethoxybenzoyl)-4-(3,4-dihydrocarbostyril-6-yl)thiazole]"
3,3,"CCOc1ccc(-c2nc(-c3cc(O)cc(O)c3)cs2)cc1OCC [compound 61, 4-(3,5-Dihydroxyphenyl)-2-(3,4-diethoxyphenyl)-thiazole]"
4,30,"COc1ccc(-c2nc(-c3ccc(OS(=O)(=O)O)cc3)cs2)cc1OC [compound 63, 4-(4-Hydroxysulfonyloxyphenyl)-2-(3,4-dimethoxyphenyl)thiazole]"
5,40,"CCOc1ccc(-c2nc(-c3ccc(O)cc3)cs2)cc1OCC [compound 64, 4-(4-Hydroxyphenyl)-2-(3,4-diethoxyphenyl)thiazole]"
6,60,"CCOc1ccc(-c2nc(-c3ccc(O)c(NC(C)=O)c3)cs2)cc1OCC [compound 65, 4-(3-Acetylamino-4-hydroxyphenyl)-2-(3,4-diethoxyphenyl)thiazole]"
7,70,"CCOc1ccc(-c2nc(-c3ccc(C#N)cc3)cs2)cc1OCC [compound 67, 4-(4-Cyanophenyl)-2-(3,4-diethoxyphenyl)thiazole]"
8,80,"CCCOc1cc(-c2nc(-c3ccc4c(c3)CCC(=O)N4)cs2)ccc1OC [compound 68, 4-(3,4-Dihydrocarbostyril-6-yl)-2-(4-methoxy-3-propoxy-phenyl)thiazole]"
9,100,"CCOc1ccc(-c2nc(-c3ccc(C(=N)N)cc3)cs2)cc1OCC [compound 69, 4-(4-Amidinophenyl)-2-(3,4-diethoxyphenyl)thiazole hydrochloride]"
10,200,"COc1ccc(-c2nc(-c3cc(N)cc(N)c3)cs2)cc1OC [compound 71, 4-(3,5-Diaminophenyl)-2-(3,4-dimethoxyphenyl) thiazole dihydrochloride]"
11,200,"CCOc1ccc(-c2nc(C(O)c3ccc(OC)c(OC)c3)cs2)cc1OCC (stereo not shown) [compound 73, 4-[1-Hydroxy-1-(3,4-dimethoxyphenyl)methyl]-2-(3,4-diethoxyphenyl)thiazole]"
12,600,"CC(=O)Oc1ccc(-c2csc(-c3cccnc3)n2)cc1OC(C)=O [compound 76, 4-(3,4-Diacetyloxyphenyl)-2-(3-pyridyl)thiazole]"
13,10,"CCOc1ccc(-c2nc(-c3ccc(O)c(C(=O)OC)c3)cs2)cc1OCC [compound 80, 4-(4-Hydroxy-3-methoxycarbonylphenyl)-2-(3,4-diethoxyphenyl)thiazole]"
14,40,"C=CCc1cc(-c2csc(-c3ccc(OCC)c(OCC)c3)n2)cc(C(=O)O)c1O [compound 83, 4-(3-Carboxy-4-hydroxy-5-allylphenyl)-2-(3,4-diethoxyphenyl)thiazole]"
15,80,"CCOc1ccc(-c2nc(-c3cc(C)c(O)c(C(=O)O)c3)cs2)cc1OCC [compound 85, 4-(3-Carboxy-4-hydroxy-5-methylphenyl)-2-(3,4-diethoxyphenyl)thiazole]"
16,33,"CCOc1ccc(-c2nc(-c3ccc(O)c(C(=O)OC)c3)cs2)cc1OC [compound 86, 4-(3-Methoxycarbonyl-4-hydroxyphenyl)-2-(3-methoxy-4-ethoxyphenyl)thiazole]"
17,4.8,"CCOc1ccc(-c2nc(-c3cccc(C(=O)O)c3)cs2)cc1OCC [compound 87, 4-(3-Carboxyphenyl)-2-(3,4-diethoxyphenyl)thiazole]"
18,12,"CCOc1ccc(-c2nc(-c3cc(CC(C)C)c(O)c(C(=O)O)c3)cs2)cc1OCC [compound 93, 4-(3-Carboxy-4-hydroxy-5-isobutylphenyl)-2-(3,4-diethoxyphenyl)thiazole]"
19,8.7,"CCOc1ccc(-c2nc(-c3cc(C(=O)O)c(N)cc3O)cs2)cc1OCC [compound 95, 4-(3-Carboxy-4-amino-6-hydroxyphenyl)-2-(3,4-diethoxyphenyl)thiazole]"
20,23,"CCOc1ccc(-c2nc(-c3ccc(N)c(C(=O)O)c3)cs2)cc1OCC [compound 96, 4-(3-Carboxy-4-aminophenyl)-2-(3,4-diethoxyphenyl)-thiazole]"
21,720,"CCOc1ccc(-c2nc(-c3ccc(O)c(C(=O)O)c3)c(C)s2)cc1OCC [compound 99, 4-(3-Carboxy-4-hydroxyphenyl)-2-(3,4-diethoxyphenyl)-5-methylthiazole]"

# Same assay, conditions: Table 15; O2- generation, 3x10^-7 M FMLP, cytochalasin B, 37° C., pH 7.4
row,IC50 [nM],Structure (SMILES)
1,1000,"Fc1ccc(-c2csc(-c3cccnc3)n2)cc1.Fc1ccc(-c2csc(-c3cccnc3)n2)cc1.Fc1ccc(-c2csc(-c3cccnc3)n2)cc1.[Cl][Fe][Cl] [compound 56, 2-(3-Pyridyl)-4-(4-fluorophenyl)thiazole-⅓ FeCl2 salt]"
2,800,"COC(=O)C1OC(Oc2ccc(-c3csc(-c4ccc(OC)c(OC)c4)n3)cc2)C(O)C(O)C1O [compound 77, Methyl 4-[2-(3,4-dimethoxyphenyl)thiazole-4-yl]phenyl-β-D-glucopyranosidouronate]"
3,1000,"CCOc1ccc(-c2nc(-c3ccc(O[C@@H]4O[C@H](COC(C)=O)[C@@H](OC(C)=O)[C@H](OC(C)=O)[C@H]4OC(C)=O)cc3)cs2)cc1OCC [compound 78, 2-(3,4-Diethoxyphenyl)-4-[4-(2,3,4,6-tetra-0-acetyl-β-D-glucopyranosyloxy)phenyl]thiazole]"
4,8,CCCc1cc(-c2csc(-c3ccc(OCC)c(OCC)c3)n2)cc(C(=O)O)c1O [compound 90]
